# Experimental data from PubChem BioAssay AID1963974 (Molecular Pharmacology Branch, DTP, NCI, 2024).
# Tested on: 648629-189-R-J1-PDC spheroids with HUVEC/MSC, viability
# Experiment: Anticancer human tumor 648629-189-R-J1-PDC patient-derived bladder carcinoma cell line growth inhibition [PI3K]
# Conditions: for IC50: curve of first compound; for viability, T/C: stronger effect = lower value
# Description: Combinatorial screen of targeted agents with the PI3K inhibitors inavolisib, alpelisib, duvelisib, and copanlisib in multi-cell type tumor spheroids
# A high-throughput screen of multi-cell type tumor spheroids was designed to identify active combinations of targeted small molecules and PI3K pathway inhibitors. Complex spheroids include a stromal component modeled by human endothelial cells (HUVEC) and fibroblasts modeled by human mesenchymal stem cells (MSCs). The concentration ranges selected for each drug and investigational agent were based upon clinically achievable concentrations if the clinical Cmax of the agent was known.
# Compounds. The drugs and investigational agents: inavolisib (NSC800729), alpelisib (NSC765974), duvelisib (NSC772469), copanlisib (NSC816437), ipatasertib (NSC767898), afuresertib (NSC778305), talazoparib (NSC767125), sapanisertib (NSC764658), selumetinib (NSC741078), tovorafenib (DAY101, NSC766906), vemurafenib (NSC761431), ravoxertinib (NSC781343), sotorasib (NSC818433), MRTX1133 (NSC 836407), abemaciclib (NSC 768073), palbociclib (NSC758247), venetoclax (NSC 766270), SY5609 (NSC837396), enzalutamide (NSC755605), and darolutamide (NSC825331), were obtained from the National Cancer Institute (NCI) Developmental Therapeutics Program Chemical Repository. The FDA-approved anticancer drug set is available from the NCI Developmental Therapeutics Program. […] The stock solutions were prepared in dimethyl sulfoxide (DMSO, Sigma-Aldrich, St. Louis, MO, cat. D2650) at 800-fold the tested concentration and stored at -70 degrees C prior to their use. All drugs and investigational agents were tested over a range starting from a high concentration at or near the clinical Cmax and decreasing in half-log increments. If the clinical Cmax for an agent had not been determined, the highest concentration tested was 10 microM.
# Cell Culture. All cells were maintained in an incubator at 37 degrees C and 5% CO2 with 95% humidity. The PDC lines were cultured according to standard operating procedures established by the NCI PDMR (https://pdmr.cancer.gov/sops/default.htm). All PDCs were thawed and cultured in Matrigel-coated flasks prepared with a working solution of 1X Ham's F-12 nutrient mix, without supplementation (Invitrogen, Waltham, MA, cat. 11765054), 100 U/mL penicillin-streptomycin (Invitrogen, cat. 15140122), and 2.5% Matrigel (Corning Inc., Corning, NY, cat. 354248) for the first three passages. The 354836-022-R-J1-PDC, 475296-252-R-J1-PDC, and 997726-040-R-J2-PDC lines were cultured in 6A media, which includes advanced DMEM/F-12 (Thermo Fisher Scientific, cat. 12634028), 10 mM HEPES (Thermo Fisher Scientific, cat. 15630080), 1X GlutaMAX supplement (Thermo Fisher Scientific, cat. 35050061), 0.1 mg/mL primocin (InvivoGen, San Diego, CA, cat. ant-pm-2), 10% defined fetal bovine serum, heat inactivated (HyClone Laboratories Inc., Logan, UT, cat. SH30070.03HI), 50% L-WRN conditioned media (ATCC, cat. CRL-3276), 1.25 mM N-Acetyl-L-cysteine (Sigma-Aldrich, cat. A9165), 10 mM nicotinamide (Sigma-Aldrich, cat. N0636), 1X B-27 supplement (Thermo Fisher Scientific, cat. 17504044), 1X N-2 supplement (Thermo Fisher Scientific, cat. 17502048), and 10 microM Y-27632 dihydrochloride (Tocris Bioscience, Bristol, United Kingdom, cat. 1254). The 624824-186-R-J2-PDC line was cultured in 6C/Colon 1B media, which includes all 6A media components plus 50 ng/mL human EGF recombinant protein (Thermo Fisher Scientific, cat. PHG0311). […]
# [1] = second compound 0.0316 µM, first compound 0.0316 µM
# [2] = second compound 0.0316 µM, first compound 0.1 µM
# [3] = second compound 0.0316 µM, first compound 0.316 µM
# [4] = second compound 0.0316 µM, first compound 1 µM
# [5] = second compound 0.0316 µM, first compound 3.16 µM
# [6] = second compound 0.0316 µM, first compound 10 µM
# [7] = second compound 0.1 µM, first compound 0.0316 µM
# [8] = second compound 0.1 µM, first compound 0.1 µM
# [9] = second compound 0.1 µM, first compound 0.316 µM
# [10] = second compound 0.1 µM, first compound 1 µM
# [11] = second compound 0.1 µM, first compound 3.16 µM
# [12] = second compound 0.1 µM, first compound 10 µM
# [13] = second compound 0.316 µM, first compound 0.0316 µM
# [14] = second compound 0.316 µM, first compound 0.1 µM
# [15] = second compound 0.316 µM, first compound 0.316 µM
# [16] = second compound 0.316 µM, first compound 1 µM
# [17] = second compound 0.316 µM, first compound 3.16 µM
# [18] = second compound 0.316 µM, first compound 10 µM
# [19] = second compound 1 µM, first compound 0.0316 µM
# [20] = second compound 1 µM, first compound 0.1 µM
# [21] = second compound 1 µM, first compound 0.316 µM
# [22] = second compound 1 µM, first compound 1 µM
# [23] = second compound 1 µM, first compound 3.16 µM
# [24] = second compound 1 µM, first compound 10 µM
# 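Note: spheroids exposed to agents for seven days before reading.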
# 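Throughout, for viability, T/C: percent of vehicle control luminescence where 100% = DMSO treated spheroids.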
structure (smiles),measurement,setting,value
CC1(C)CCC(CN2CCN(c3ccc(C(=O)NS(=O)(=O)c4ccc(NCC5CCOCC5)c([N+](=O)[O-])c4)c(Oc4cnc5[nH]ccc5c4)c3)CC2)=C(c2ccc(Cl)cc2)C1 + CC(Nc1ccc2c(c1)OCCn1cc(N3C(=O)OCC3C(F)F)nc1-2)C(N)=O,IC50,second compound 0.00316 µM,4.77 µM
same,IC50,second compound 0.01 µM,4.84 µM
same,IC50,second compound 0.0316 µM,4.55 µM
same,IC50,second compound 0.1 µM,5.28 µM
same,IC50,second compound 0.316 µM,4.45 µM
same,IC50,second compound 1 µM,4.34 µM
same,"viability, T/C","second compound 0.00316 µM, first compound 0.0316 µM",101%
same,"viability, T/C","second compound 0.00316 µM, first compound 0.1 µM",90.9%
same,"viability, T/C","second compound 0.00316 µM, first compound 0.316 µM",92.9%
same,"viability, T/C","second compound 0.00316 µM, first compound 1 µM",80.7%
same,"viability, T/C","second compound 0.00316 µM, first compound 3.16 µM",76.7%
same,"viability, T/C","second compound 0.00316 µM, first compound 10 µM",8.54%
same,"viability, T/C","second compound 0.01 µM, first compound 0.0316 µM",122%
same,"viability, T/C","second compound 0.01 µM, first compound 0.1 µM",88.3%
same,"viability, T/C","second compound 0.01 µM, first compound 0.316 µM",106%
same,"viability, T/C","second compound 0.01 µM, first compound 1 µM",86%
same,"viability, T/C","second compound 0.01 µM, first compound 3.16 µM",80.7%
same,"viability, T/C","second compound 0.01 µM, first compound 10 µM",7.49%
same,"viability, T/C",[1],110%
same,"viability, T/C",[2],102%
same,"viability, T/C",[3],98.2%
same,"viability, T/C",[4],89.5%
same,"viability, T/C",[5],71.3%
same,"viability, T/C",[6],9.16%
same,"viability, T/C",[7],84.5%
same,"viability, T/C",[8],99.8%
same,"viability, T/C",[9],90.5%
same,"viability, T/C",[10],95.6%
same,"viability, T/C",[11],83.8%
same,"viability, T/C",[12],7.86%
same,"viability, T/C",[13],74.7%
same,"viability, T/C",[14],76%
same,"viability, T/C",[15],79.4%
same,"viability, T/C",[16],77.6%
same,"viability, T/C",[17],67.5%
same,"viability, T/C",[18],7.9%
same,"viability, T/C",[19],74.2%
same,"viability, T/C",[20],63.4%
same,"viability, T/C",[21],62.5%
same,"viability, T/C",[22],67.3%
same,"viability, T/C",[23],65.7%
same,"viability, T/C",[24],8.61%
CC1(C)CCC(Nc2ncc(C(F)(F)F)c(-c3c[nH]c4c(P(C)(C)=O)c(C#N)ccc34)n2)CN1 (centres undefined) + Cc1nc(NC(=O)N2CCCC2C(N)=O)sc1-c1ccnc(C(C)(C)C(F)(F)F)c1,IC50,second compound 0.0316 µM,< 0.0316 µM
same,IC50,second compound 0.1 µM,< 0.0316 µM
same,IC50,second compound 0.316 µM,< 0.0316 µM
same,IC50,second compound 1 µM,< 0.0316 µM
same,IC50,second compound 3.16 µM,< 0.0316 µM
same,IC50,second compound 10 µM,< 0.0316 µM
same,"viability, T/C",[1],29.4%
same,"viability, T/C",[2],27.6%
same,"viability, T/C",[3],25.6%
same,"viability, T/C",[4],33.7%
same,"viability, T/C",[5],40.7%
same,"viability, T/C",[6],5.12%
same,"viability, T/C",[7],24.7%
same,"viability, T/C",[8],27.4%
same,"viability, T/C",[9],29.3%
same,"viability, T/C",[10],38.2%
same,"viability, T/C",[11],40.9%
same,"viability, T/C",[12],4.14%
same,"viability, T/C",[13],27.6%
same,"viability, T/C",[14],24.7%
same,"viability, T/C",[15],30.5%
same,"viability, T/C",[16],27.9%
same,"viability, T/C",[17],36.4%
same,"viability, T/C",[18],4.18%
same,"viability, T/C",[19],26.8%
same,"viability, T/C",[20],23.9%
same,"viability, T/C",[21],26%
same,"viability, T/C",[22],27.4%
same,"viability, T/C",[23],27.4%
same,"viability, T/C",[24],2.87%
same,"viability, T/C","second compound 3.16 µM, first compound 0.0316 µM",26%
same,"viability, T/C","second compound 3.16 µM, first compound 0.1 µM",23.1%
same,"viability, T/C","second compound 3.16 µM, first compound 0.316 µM",21%
same,"viability, T/C","second compound 3.16 µM, first compound 1 µM",22.2%
same,"viability, T/C","second compound 3.16 µM, first compound 3.16 µM",24.7%
same,"viability, T/C","second compound 3.16 µM, first compound 10 µM",1.62%
same,"viability, T/C","second compound 10 µM, first compound 0.0316 µM",21.5%
same,"viability, T/C","second compound 10 µM, first compound 0.1 µM",17.1%
same,"viability, T/C","second compound 10 µM, first compound 0.316 µM",18.1%
same,"viability, T/C","second compound 10 µM, first compound 1 µM",16.6%
same,"viability, T/C","second compound 10 µM, first compound 3.16 µM",15.5%
same,"viability, T/C","second compound 10 µM, first compound 10 µM",0.41%
